Measurements from patent US7378545B2, “Crystallization of amino acids using ultrasonic agitation” (Abbott Laboratories, priority 2002, dated 2008).

Key:
Format in all cases: physicochemical
[1] = Degradation of L-thyroxine in crystallization solution at elevated temperature; conditions: concentrations above 10% not feasible
Method: Concentrations of L-thyroxine above 10% were not feasible due to degradation at above 65° C.

[2] = Nucleation temperature / metastable zone during cooling of L-thyroxine solutions
Source text: The extent of the metastable zone depends on the rate of cooling. The lower the cooling rate, the higher the temperature at which nucleation begins.

[3] = Effect of ultrasonification on crystallization, particle size by Aerosizer time-of-flight (2000 W, 20 kHz sonotrode)
Source text: L-thyroxine crystals were obtained by batch-wise cooling crystallization of a standard solution of L-thyroxine.
To crystallize L-thyroxine, the standard solution of L-thyroxine was heated to a specified temperature, introduced into a crystallizer and cooled at a controlled rate. As the solution cooled and L-thyroxine crystallized, the solution was exposed to ultrasonification.
A sonotrode complete with generator and transducer capable of emitting an radial ultrasonic pressure wave at a 20 kHz frequency and 2000 W of power (UIP 2000 industrial processor with block sonotrode) was mounted in the crystallizer. The L-thyroxine solution was prepared and agitated at 20 RPM. The temperature was stabilized at 50° C., and the ultrasonic generator was turned on in continuous mode and at 100% amplitude. The cooling sequence was then initiated and the temperature of the solution was lowered at 0.5° C. per minute to a final set point of 10° C. The period of time that the ultrasound was applied to the solution as it was cooling to this set point was varied. For the first trial, a controlled crystallization was allowed to occur without any application of ultrasound to the product solution. For the second trial, the ultrasound remained on until a temperature of 30° C. was reached. At this point the ultrasound was turned off while the solution continued to cool to 10° C. When 10° C. was reached, the slurry was sampled and heated back up to 50° C. to redissolve the solid. The third trial proceeded in the same manner, but when the solution reached a temperature of 26° C., the ultrasound was turned off and the solution continued to cool to 10° C. The trials continued in this manner, changing the temperature at which the ultrasound was turned off by 4° C. each time until for the last trial, the solution was sonified throughout cooling. During this last trial, ultrasound was maintained at the cooling set point for a period of one hour, with samples being pulled at the half hour and one hour mark. This slurry was then transferred to a filter dryer for filtering, washing and drying. Once the product was dry, a sample was taken to determine the additional effects on particle size of the manufacturing process downstream of the crystallizer.
Particle size analysis for all samples was performed with an Aerosizer aerodynamic time-of-flight particle-sizing instrument.
Samples for all of the trials shown in the table above were taken from the crystallizer in the slurry form. A portion of these slurry samples was filtered, washed with ethanol and dried at ambient temperature. A reduction in particle size on a volume basis was apparent between trial 1, which underwent no sonification, and trials 2-7, which underwent various periods of ultrasound application. The magnitude of this reduction is roughly three fold.

[4] = Effect of ultrasonification intensity on crystal size (22 L crystallizer, 24 kHz sonotrode)
Method: In order to verify the findings from Example 5, additional experiments were carried out in a 22 L double-jacket glass crystallizer equipped with a draft tube and a 200 mm marine type propeller (Ne=0.3). A custom-made sonotrode (24 kHz) was used along with a UIP250 sound generator. In this example, the exact sonification power was not determined, although it was estimated to be in the order of 25-50 W. The findings are illustrated in Table 7.

[5] = Parametric sensitivity of L-thyroxine crystallization, particle size (one liter glass crystallizer, no ultrasound)
Method: The following trials were conducted to test the effects of various parameters other than ultrasonification on the crystallization of L-thyroxine. These trials were performed in a one liter glass crystallizer equipped with three baffles and a 60 mm marine type propeller (Ne=0.4). While most trials were run with the standard solution given in Example 1, propanol concentration was varied in trials 5 and 6. The final temperature for all trials was 10° C.

[6] = Effect of ultrasonification intensity on crystal size (one-liter flask in ultrasonic bath, ≈40 kHz); conditions: for C.V. Coefficient of variation = (X86 − X14)/(2 * X50): unit assumed
Method: A one-liter round bottom glass flask was filled with the standard L-thyroxine solution and cooled under stirring. The flask was then immersed in an ultrasonic bath (Sonorex Super Bandelin DK102, ≈40 kHz) to study the influence of different sonification intensities on the size of L-thyroxine crystals. The frequency and power dissipated by the bath was measured using a hydrophone. As an additional parameter, the onset point of sonification and its duration was also varied.

[7] = Solubility of L-thyroxine in standard solution (cooling/redissolving, light probe)
Method: The solubility of L-thyroxine was determined by studying a standard solution of L-thyroxine.
The L-thyroxine solution was then transferred to a glass crystallizer and cooled until the L-thyroxine crystallized spontaneously. Then, the temperature of the solution was slowly raised until the crystallized L-thyroxine was redissolved. The crystallization status of the solution was determined using a light probe. The light probe was comprised of two parallel rods with a light source and a photocell. The light probe measured the amount of crystals in the solution by determining the change in the amount of light that was absorbed or scattered by the solution. In solutions with crystals, the photocells registered a weakened beam as compared to beams sent through clear solutions.
Data obtained from these experiments is plotted in FIG. 1. The solubility of L-thyroxine in the standard solution is given by black circles, interpolated by the solid line.
The temperature of saturation at standard conditions (4.84% w/w) was 42° C. […] A theoretical yield of 83% of L-thyroxine was calculated. […] At a concentration of 20% propanol or 4% sodium carbonate, the solubility of L-thyroxine at lower temperatures was not determined. Under these conditions, sodium carbonate co-precipitated with sodium L-thyroxine at around 10° C.

[8] = trial 1: ultrasound off, cooled 50 to 10° C. at 0.5° C. per minute
[9] = trial 2: ultrasound on at 50° C., off at 30° C.
[10] = trial 3: ultrasound on at 50° C., off at 26° C.
[11] = trial 4: ultrasound on at 50° C., off at 22° C.
[12] = trial 5: ultrasound on at 50° C., off at 18° C.
[13] = trial 6: ultrasound on at 50° C., off at 14° C.
[14] = trial 7: ultrasound on at 50° C., off at 10° C.
[15] = trial 3: 10% US switched on at 32.5° C. (1K above expected nucleation temperature)
[16] = trial 5: 50% US switched on at 32.5° C.
[17] = trial 6: 100% US (roughly 0.18 W/cm^2)
[18] = trial 7: 100% US switched on at 32.5° C.
[19] = trial 8: 100% US switched off immediately after nucleation

N[C@@H](Cc1cc(I)c(Oc2cc(I)c(O)c(I)c2)c(I)c1)C(=O)O [L-thyroxine]
temperature of degradation [1]: above 65 °C
metastable zone (range of supercooling) ([2]; aqueous solutions during cooling, depends on rate of cooling): 5-11 °C
increase in the temperature at which solids appeared ([2]; plant scale, sonified crystallizations, cooling rate 0.5° C. per minute): 9-18 °C
decrease in the metastable zone ([2]; sonified solution, cooling rate 0.17-0.5° C. per minute): 1-3 °C
Nucleation Temperature ([2]; trial 1: ultrasound off): 25 °C
Nucleation Temperature ([2]; trial 2: ultrasound on): 35 °C
Nucleation Temperature ([2]; trial 3: ultrasound on): 38 °C
Nucleation Temperature ([2]; trial 4: ultrasound on): 38 °C
Nucleation Temperature ([2]; trial 5: ultrasound on): 34 °C
Nucleation Temperature ([2]; trial 6: ultrasound on): 36 °C
Nucleation Temperature ([2]; trial 7: ultrasound on): 34 °C
Mean Particle Size (Number) [3, 8]: 3 µm
Mean Particle Size Volume [3, 8]: 20.8 µm
Mean Particle Size (Number) [3, 9]: 2.4 µm
Mean Particle Size Volume [3, 9]: 6.6 µm
Mean Particle Size (Number) [3, 10]: 2.3 µm
Mean Particle Size Volume [3, 10]: 5.4 µm
Mean Particle Size (Number) [3, 11]: 2.5 µm
Mean Particle Size Volume [3, 11]: 5.7 µm
Mean Particle Size (Number) [3, 12]: 2.4 µm
Mean Particle Size Volume [3, 12]: 5.3 µm
Mean Particle Size (Number) [3, 13]: 2.4 µm
Mean Particle Size Volume [3, 13]: 5.2 µm
Mean Particle Size (Number) [3, 14]: 3.1 µm
Mean Particle Size Volume [3, 14]: 6.1 µm
reduction in particle size on a volume basis ([3]; trials 2-7 (ultrasound) versus trial 1 (no sonification)): roughly three fold
reduction of particle size ([4]; smallest ultrasound intensity versus no ultrasound): 50%
Crystal size ([4]; trial 1: No Ultrasound): 28 μm
Crystal size ([4]; trial 2: 10% Ultrasound): 15 μm
Crystal size ([4]; trial 3: 100% Ultrasound): 14 μm
Particle size ([5]; trial 1: cooling 20/10 K/h, 0.5 W/kg, dried 10 mbar 50° C.): 15 μm
Particle size ([5]; trial 1: cooling 20/10 K/h, 0.5 W/kg, dried 1013 mbar 25° C. openly in lab): 30 μm
Particle size ([5]; trial 2: cooling 20/10 K/h, 5 W/kg (stirrer rate increased 3x), dried 10 mbar 35° C.): 18 μm
Particle size ([5]; trial 3: cooling 30 K/h, 0.5 W/kg, dried 10 mbar 35° C.): 19 μm
Particle size ([5]; trial 4: cooling 30 K/h, 5 W/kg, dried 1013 mbar RT): 10 μm
Particle size ([5]; trial 5: 20% propanol, cooling 30 K/h, 5 W/kg, dried 50 mbar 35° C.): <20 μm
Particle size ([5]; trial 6: 10% propanol, cooling 30 K/h, 5 W/kg, dried 50 mbar 35° C.): >30 μm
Particle size ([5]; trial 7: cooling 30 K/h, 0.5 W/kg, dried 1013 mbar RT, rinsed with 90/10 EtOH/water): 16 μm
Particle size ([5]; trial 8: cooling 30 K/h, 5 W/kg, dried 50 mbar 35° C., rinsed with 90/10 EtOH/water): 11 μm
Particle size ([5]; trial 9: cooling 30 K/h, 2 W/kg, dried 50 mbar 35° C., rinsed with 90/10 EtOH/water): 13 μm
Particle size ([5]; trial 10: as above, 1 hour stirring at final temperature): 15 μm
Particle size ([5]; trial 10: as above, 2 hour stirring at final temperature): 15 μm
Particle size ([5]; trial 10: cooling 30 K/h, 0.5 W/kg, dried 50 mbar 35° C.): 15 μm
Average Size ([6]; trial 1: 0% US intensity): 46 μm
Undercooling ([6]; trial 1: 0% US intensity): 13.6 °C
C.V. Coefficient of variation = (X86 − X14)/(2 * X50) ([6]; trial 1: 0% US intensity): 74%
Average Size ([6]; trial 2: 10% US): 13 μm
Undercooling ([6]; trial 2: 10% US): 12.1 °C
C.V. Coefficient of variation = (X86 − X14)/(2 * X50) ([6]; trial 2: 10% US): 70%
Average Size [6, 15]: 11 μm
Undercooling [6, 15]: 12.8 °C
C.V. Coefficient of variation = (X86 − X14)/(2 * X50) ([6]; trial 3: 10% US switched on at 32.5° C.): 84%
Average Size ([6]; trial 4: 50% US): 13 μm
Undercooling ([6]; trial 4: 50% US): 10.6 °C
C.V. Coefficient of variation = (X86 − X14)/(2 * X50) ([6]; trial 4: 50% US): 65%
Average Size [6, 16]: 11 μm
Undercooling [6, 16]: 12.5 °C
C.V. Coefficient of variation = (X86 − X14)/(2 * X50) [6, 16]: 69%
Average Size [6, 17]: 11 μm
Undercooling [6, 17]: 11.9 °C
C.V. Coefficient of variation = (X86 − X14)/(2 * X50) ([6]; trial 6: 100% US): 61%
Average Size [6, 18]: 11 μm
Undercooling [6, 18]: 12.5 °C
C.V. Coefficient of variation = (X86 − X14)/(2 * X50) [6, 18]: 62%
Average Size [6, 19]: 22 μm
Undercooling [6, 19]: 10.9 °C
C.V. Coefficient of variation = (X86 − X14)/(2 * X50) [6, 19]: 74%
effect of solution composition on solubility ([7]; higher sodium carbonate or propanol concentrations): the inverse effect is observed
effect of solution composition on solubility ([7]; reduction of sodium carbonate or propanol content of the initial solution): reduces L-thyroxine solubility
temperature of saturation ([7]; standard solution, 4.84% w/w L-thyroxine, 14.0% n-propanol, 2.85% sodium carbonate): 42 °C
solubility ([7]; standard solution, end of the cooling curve, 10° C.): 0.78%

N[C@@H](Cc1cc(I)c(Oc2cc(I)c(O)c(I)c2)c(I)c1)C(=O)O.[Na] [sodium L-thyroxine]
point of nucleation of the aqueous solution ([2]; in the absence of ultrasound): approximately 32 °C
